In patent publication US20060025398A1, “Topical antiviral therapeutic and prophylactic treatment of adenoviruses and their associated diseases” (priority 2003, published 2006):
“Also recorded” adds a separate entry of the source.

How the values were obtained:
Human Adenovirus Type 5 [1] = assay: CTC-96 treatment of Adenovirus induced keratoconjunctivitis in rabbit eyes, clinical grading by slit lamp microscopy; format: in vivo; settings: for progression of disease severity: 21 days, from day 8 post-inoculation
Protocol: (§1) Clinical results and plaque assay viral titers of three CTC-96 treatment/dosing regimens of rabbit eyes infected with Human adenovirus, Adenovirus type 5 (Ad5), were evaluated. On “Day 1” animals were infected with Human Adenovirus Type 5 by the installation of 10^6 pfu adenovirus according to our protocol of conjunctival and corneal scarification for the induction of Keratoconjunctivitis. […] Animals were then randomized and the following experimental groups were treated with CTC-96 or placebo in a double blind experiment: • (1) Placebo (diluent alone), 9×/day, for 21 days: (4 rabbits). • (2) CTC-96 50 μg/ml, 9×/day, for 21 days: (4 rabbits). • (3) CTC-96 50 μg/ml, 6×/day, for 21 days: (4 rabbits). • (4) C T W 25 μg/ml, 6×/day, for 21 bays: (4 rabbits).
Clinical disease progression and resolution were evaluated by slit lamp microscopy on days 1, 3, 7, 10, 13, 18, 21, 24, 28 and 31 after initial drug dosing. The intensity of the keratitis was quantified using a clinical grading system (5).
The data In FIG. 3 were obtained as follows: rabbits were infected with Human Adenovirus Type 5 by the installation 10^6 pfu adenovirus according to our protocol of conjunctival and corneal scarification for the production of Keratoconjunctivitis. On day 8 post-inoculation treatment with eye drops containing CTC-96 or placebo was initiated. Animals were examined for stromal keratitis and scored by the corneal disease scale of Wander et al. (5). The following are the Criteria For Determination Of Conjunctival Disease: […]

Adenovirus type 5 (Ad5) = assay: Adenovirus type 5 titers following direct exposure of the virus to CTC-96 prior to HeLa cell infection (plaque assay); format: cell-based; settings: Ad5 incubated with CTC-96 at 37° C. for 60 minutes, diluted 500 fold, HeLa cells
Protocol: (§2) Anti-adenovirus activity of CTC-96 was evaluated by standard cell culture using HeLa cells, a human cervical carcinoma immortalized cell line (the usual host for laboratory grade adenovirus) and anti-viral plaque-reduction assays.
The data graphically depicted in FIG. 1 were obtained as follows: varying concentrations of the CTC-96 were mixed with concentrated Human Adenovirus, [Adenovirus type 5 (Ad5)] and incubated at 37° C. for 60 minutes. Aliquots were then diluted 500 fold into growth medium. Hela cells were exposed to 100 μl of the diluted material to initiate infection. These monolayers were incubated for 24 hours at 37% and 5% CO2 and then washed, scraped, sonicated, centrifuged and the supernatant serially diluted. These serial dilutions were plated onto indicator HeLa cell monolayers and adsorbed for 60 min, aspirated and a methycellulose overlay placed over the cells, which were then incubated for 3 days at 37%. Cultures were counterstained with 1% methylene blue, allowed to dry and the plaques counted. Results are expressed as mean±SD (where error bars are not visible they are contained within data point).

[2] = test system: Adenovirus types 1, 2, 3, 4, 5, and 7; assay: CTC-96 efficacy against several adenovirus serotypes in HeLa cells in tissue culture (viral titers at each drug concentration); format: cell-based, Human Adenoviruses; settings: drug overlaid after 1 hour adsorption, 24 hours, 500, 250, 100, 50, 10 μg/ml
Protocol: Since these human viruses cannot be grown in animal models, this provides an excellent indication of the effectiveness of CTC-96 against a broad spectrum of Adenovirus types. To determine CTC-96 efficacy against several types of serotypes of adevirus the following procedure was followed:
1. Hela cells were confluent at the time of inoculation.
2. Virus dilutions were prepared from the known titers of the stock viruses (4×10^5 pfu/ml; 4×10^4/0.1 ml) of Ad1 Kmetz, Ad2 Wolf, Ad3 Holyfield, Ad4 Harris, Ad7a Joseph, ATCC. This virus inoculation yielded a virus infection with an m.o.i. (multiplicity of infection) of approximately 1.0.
3. 100 µl of each Ad serotype were inoculated onto cultures containing Hela cells.
4. During the adsorption period, Doxovir concentrations of 500, 250, 100, 50, 10, and 0 μg/ml were prepared in culture medium according to the dilution protocol.
5. Virus was adsorbed at 37° C. in a 5% CO2 water-vapor atmosphere for 1 hour.
6. […]
13. Viral titers were determined at each drug concentration. […]
as §2

[3] = test system: human Adenovirus type 5 (Ad5); assay: Virus titers after exposure of Ad5 infected HeLa cells to CTC-96 (plaque assay); format: cell-based; settings: Ad5 adsorbed onto HeLa monolayers 60 min, then CTC-96 for 24 hr
Protocol: Monolayers were then incubated for 24 hr at 37° C. and 5% CO2. Monolayers were then washed, scraped, sonicated, centrifuged and the supernatant serially diluted. These serial dilutions were plated onto indicator HeLa cell monolayers and adsorbed for 60 min, aspirated and a methylcellulose overlay placed over the cells, which were then incubated for 3 days at 37%. Cultures were counterstained with 1% methylene blue, allowed to dry and the plaques counted. Results am expressed as mean & SD (where error bars are not visible they are contained within data point).

Human Adenovirus Type 5 [4] = assay: Adenovirus recovery from tear film of infected rabbit eyes, plaque assay on HeLa cell monolayers; format: in vivo
Protocol: as §1
The efficacy of CTC-96 treatment of rabbit eyes infected with Human adenovirus, Adenovirus type 5 (Ad5), was also evaluated by adenovirus recovery from tear film cultures adsorbed onto confluent HeLa cell monolayers. […] On day 8 post-inoculation treatment with eye drops containing CTC-96 or placebo was initiated. Adenovirus recovery from tear film was evaluated by plaque assay on confluent HeLa cell monolayers. Data are presented as Average±SD.

SMILES: CC(/C=C(/C)[O-])=NCCN=C(C)/C=C(/C)[O-].Cc1ncc[nH]1.Cc1ncc[nH]1.[Br-].[Co+3] [CTC-96]
- complete resolution of clinical disease (day after initial drug dosing) (Human Adenovirus Type 5 [1]; 50 μg/ml 6 times a day for 21 days): ≤ 21 days
- complete resolution of clinical disease (day after initial drug dosing) (Human Adenovirus Type 5 [1]; 50 μg/ml 9 times a day for 21 days): ≤ 21 days
- progression of disease severity (Human Adenovirus Type 5 [1]; topical eye drops 25 μg/ml, 6×/day): prevented progression of disease severity
- progression of disease severity (Human Adenovirus Type 5 [1]; topical eye drops 50 μg/ml, 6×/day or 9×/day): prevented progression of disease severity
- effect on virus growth when virus is exposed to the drug prior to cell infection (Adenovirus type 5 (Ad5)): inhibitory (prophylactic) effect on growth
- efficacy against Adenovirus types in culture [2]: effective against types 1, 2, 3, 4, 5, and 7; also recorded: efficacy against Adenovirus types 1, 2, 3, 4, 5, and 7
- effect on viral growth in Adenovirus infected cells subsequently exposed to the drug [3]: inhibition of viral growth
- no detectable virus in the eye (Human Adenovirus Type 5 [4]; 50 μg/ml 6 times a day): ≤ 13 days
- no detectable virus in the eye (Human Adenovirus Type 5 [4]; 50 μg/ml 9 times a day): ≤ 13 days
